Assay results as given in patent US20240252488A1 (KOREA RESEARCH INSTITUTE OF CHEMICAL TECHNOLOGY, priority 2020, published 2024).

Tests used:
FADD−/− Jurkat cells = assay: Necroptosis inhibition assay, TNF-α-induced necroptosis (CellTiter-Glo 2.0); format: cell-based, human; details: TNF-α 15 ng/mL; for Necroptosis inhibition assay (Rescue %) 1 μM: compound 1 μM; for Necroptosis inhibition assay (Rescue %) 10 μM: compound 10 μM
Summary of the method: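 Tested at three fixed concentrations (0.1, 1, 10 μM final) with a 30-minute room-temperature preincubation ahead of 15 ng/mL TNF-α challenge lasting 20 to 24 hours. Inhibition rate and cytotoxicity derive from ATP luminescence.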

MLKL [1] = biological target: T1, MLKL (Homo sapiens, UniProt Q8NB16); assay: MLKL degradation assay in HepG2 cell line (western blot); format: cell-based; parameters: endogenous in cells; host or cells: HepG2 or HaCaT; details: cell line not given; for Degradation assay (Degradation %) 1 μM: compound 1 μM; for Degradation assay (Degradation %) 10 μM: compound 10 μM
T1 sequence (Q8NB16 1-471): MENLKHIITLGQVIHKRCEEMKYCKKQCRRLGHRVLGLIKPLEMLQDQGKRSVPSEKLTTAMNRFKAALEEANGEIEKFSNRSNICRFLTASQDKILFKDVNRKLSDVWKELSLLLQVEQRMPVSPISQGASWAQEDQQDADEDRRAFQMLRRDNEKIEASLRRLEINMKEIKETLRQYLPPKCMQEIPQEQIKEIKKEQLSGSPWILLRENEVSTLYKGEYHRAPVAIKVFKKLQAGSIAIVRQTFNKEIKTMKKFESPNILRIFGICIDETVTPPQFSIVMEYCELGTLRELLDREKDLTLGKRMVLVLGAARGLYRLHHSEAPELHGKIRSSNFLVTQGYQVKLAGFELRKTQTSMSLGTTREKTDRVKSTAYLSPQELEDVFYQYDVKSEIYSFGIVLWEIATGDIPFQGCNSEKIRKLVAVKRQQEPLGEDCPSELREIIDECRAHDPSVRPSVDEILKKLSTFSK
Summary of the method: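 Degradation is judged from MLKL band intensity on immunoblots of HepG2 lysates taken after 20-24 hours of compound at final 1 or 10 μM.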

MLKL [2] = biological target: T1, MLKL; assay: Measurement of binding affinity with MLKL receptor (competitive binding assay, Kd); parameters: made in house; host or cells: HEK 293 cell line (T7 phage in E. coli BL21-derived host is also described)
Summary of the method: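 MLKL was produced in HEK 293 cells and tagged with DNA for detection. Liganded beads were blocked with excess biotin and washed to cut non-specific binding, then compounds (111× DMSO stocks, 0.9% DMSO in assay) competed for binding. Eluate kinase was measured by qPCR for Kd.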

SMILES | Necroptosis inhibition assay (Rescue %) 1 μM (FADD−/− Jurkat cells) [%] | Necroptosis inhibition assay (Rescue %) 10 μM (FADD−/− Jurkat cells) [%] | Degradation assay (Degradation %) 1 μM (MLKL [1]) [%] | Degradation assay (Degradation %) 10 μM (MLKL [1]) [%] | Kd (MLKL [2]) [nM] | Necroptosis inhibition assay (Rescue %) 1 μM (FADD−/− Jurkat cells; FADD−/− Jurkat cells) [%] | Necroptosis inhibition assay (Rescue %) 10 μM (FADD−/− Jurkat cells; FADD−/− Jurkat cells) [%]
Nc1ncc(-c2cnn(C3CCN(CCC4CCN(C(=O)CNc5ccc6c(c5)C(=O)N(C5CCC(=O)NC5=O)C6=O)CC4)CC3)c2)cc1C(=O)OC(C(=O)Nc1ccc(F)cc1)c1ccccc1 (stereo not shown) [TDH-302, 2-((4-fluorophenyl)amino)-2-oxo-1-phenylethyl 2-amino-5-(1-(1-(2-(1-((2-(2,6-dioxopiperidin-3-yl)-1,3-dioxoisoindolin-5-yl)glycyl)piperidin-4-yl)ethyl)piperidin-4-yl)-1H-pyrazol-4-yl)nicotinate] | 54.15 | 51.56 | 96.64 | 85.06 | 8.6 |  | 
Nc1ncc(-c2cnn(C3CCN(CCCCCCNC(=O)C4CCN(c5ccc6c(c5)C(=O)N(C5CCC(=O)NC5=O)C6=O)CC4)CC3)c2)nc1C(=O)O[C@@H](C(=O)Nc1ccc(F)cc1)c1ccccc1 (stereo partly drawn) [TDH-109, (R)-2-((4-fluorophenyl)amino)-2-oxo-1-phenylethyl 3-amino-6-(1-(1-(6-(1-(2-(2,6-dioxopiperidin-3-yl)-1,3-dioxoisoindolin-5-yl)piperidine-4-carboxamido)hexyl)piperidin-4-yl)-1H-pyrazol-4-yl)pyrazine-2-carboxylate] | 71.74 | 48.69 | 48.55 | 56.91 | 2.8 |  | 
Nc1ncc(-c2cnn(C3CCN(CCCN4CCN(C(=O)CCc5ccc6c(c5)C(=O)N(C5CCC(=O)NC5=O)C6=O)CC4)CC3)c2)nc1C(=O)O[C@@H](C(=O)Nc1ccc(F)cc1)c1ccccc1 (stereo partly drawn) [TDH-383, (R)-2-((4-fluorophenyl)amino)-2-oxo-1-phenylethyl 3-amino-6-(1-(1-(3-(4-(3-(2-(2,6-dioxopiperidin-3-yl)-1,3-dioxoisoindolin-5-yl)propanoyl)piperazin-1-yl)propyl)piperidin-4-yl)-1H-pyrazol-4-yl)pyrazine-2-carboxylate] | 46.33 | 25.19 | 79.04 | 81.95 | 0.42 |  | 
Nc1ncc(-c2cnn(C3CCN(CC4CCN(CC5CCN(c6ccc7c(c6)C(=O)N(C6CCC(=O)NC6=O)C7=O)CC5)CC4)CC3)c2)nc1C(=O)O[C@@H](C(=O)Nc1ccc(F)cc1)c1ccccc1 (stereo partly drawn) [TDH-473, (R)-2-((4-fluorophenyl)amino)-2-oxo-1-phenylethyl 3-amino-6-(1-(1-((1-((1-(2-(2,6-dioxopiperidin-3-yl)-1,3-dioxoisoindolin-5-yl)piperidin-4-yl)methyl)piperidin-4-yl)methyl)piperidin-4-yl)-1H-pyrazol-4-yl)pyrazine-2-carboxylate] |  |  | 63.51 | 73.71 | 1.7 | 28.37 | −13.59
Nc1ncc(-c2cnn(C3CCN(CC4CCN(CC5CCN(C(=O)c6ccc(C(=O)NC7CCC(=O)NC7=O)cc6)CC5)CC4)CC3)c2)nc1C(=O)O[C@@H](C(=O)Nc1ccc(F)cc1)c1ccccc1 (stereo partly drawn) [TDH-539, (R)-2-((4-fluorophenyl)amino)-2-oxo-1-phenylethyl 3-amino-6-(1-(1-((1-((1-(4-((2,6-dioxopiperidin-3-yl)carbamoyl)benzoyl)piperidin-4-yl)methyl)piperidin-4-yl)methyl)piperidin-4-yl)-1H-pyrazol-4-yl)pyrazine-2-carboxylate] |  |  | 70.67 | 89.04 | 0.68 | 46.99 | 30.33
Nc1ncc(-c2cnn(C3CCN(C(=O)CC4CCN(C(=O)COc5ccc6c(c5)C(=O)N(C5CCC(=O)NC5=O)C6=O)CC4)CC3)c2)nc1C(=O)O[C@@H](C(=O)Nc1ccc(F)cc1)c1ccccc1 (stereo partly drawn) [TDH-338, (R)-2-((4-fluorophenyl)amino)-2-oxo-1-phenylethyl 3-amino-6-(1-(1-(2-(1-(2-((2-(2,6-dioxopiperidin-3-yl)-1,3-dioxoisoindolin-5-yl)oxy)acetyl)piperidin-4-yl)acetyl)piperidin-4-yl)-1H-pyrazol-4-yl)pyrazine-2-carboxylate] | 50.8 | 50.29 | 59.83 | 79.19 | 5.5 |  | 
Nc1ncc(-c2cnn(C3CCN(CCC4CCN(C(=O)c5ccc6c(N7CCC(=O)NC7=O)coc6c5)CC4)CC3)c2)nc1C(=O)O[C@@H](C(=O)Nc1ccc(F)cc1)c1ccccc1 [TDH-552, (R)-2-((4-fluorophenyl)amino)-2-oxo-1-phenylethyl 3-amino-6-(1-(1-(2-(1-(3-(2,4-dioxotetrahydropyrimidin-1(2H)-yl)benzofuran-6-carbonyl)piperidin-4-yl)ethyl)piperidin-4-yl)-1H-pyrazol-4-yl)pyrazine-2-carboxylate] |  |  | 92.21 | 75.10 | 0.41 | 31.97 | 6.25
Nc1ncc(-c2cnn(C3CCN(C(=O)c4cn(C5CCN(C(=O)CNc6cccc7c6C(=O)N(C6CCC(=O)NC6=O)C7=O)CC5)cn4)CC3)c2)nc1C(=O)O[C@@H](C(=O)Nc1ccc(F)cc1)c1ccccc1 (stereo partly drawn) [TDH-356, (R)-2-((4-fluorophenyl)amino)-2-oxo-1-phenylethyl 3-amino-6-(1-(1-(1-(1-((2-(2,6-dioxopiperidin-3-yl)-1,3-dioxoisoindolin-4-yl)glycyl)piperidin-4-yl)-1H-imidazole-4-carbonyl)piperidin-4-yl)-1H-pyrazol-4-yl)pyrazine-2-carboxylate] | 5.27 | 0.50 | 22.83 |  | 4.6 |  | 
Nc1ncc(-c2cnn(C3CCN(C4CC5(CCN(CC6CCN(C(=O)C7CN(C8=CC(=O)N(C9CCC(=O)NC9=O)C8=O)C7)CC6)CC5)C4)CC3)c2)nc1C(=O)O[C@@H](C(=O)Nc1ccc(F)cc1)c1ccccc1 (stereo partly drawn) [TDH-534, (R)-2-((4-fluorophenyl)amino)-2-oxo-1-phenylethyl 3-amino-6-(1-(1-(7-((1-(1-(1-(2,6-dioxopiperidin-3-yl)-2,5-dioxo-2,5-dihydro-1H-pyrrol-3-yl)azetidine-3-carbonyl)piperidin-4-yl)methyl)-7-azaspiro[3.5]nonan-2-yl)piperidin-4-yl)-1H-pyrazol-4-yl)pyrazine-2-carboxylate] |  |  | 49.96 | 24.88 | 0.24 | 21.33 | 22.25
Nc1ncc(-c2cnn(C3CCN(CCOC4CCN(C(=O)C5CCN(c6cccc7c6C(=O)N(C6CCC(=O)NC6=O)C7=O)CC5)CC4)CC3)c2)nc1C(=O)OC(C(=O)Nc1ccc(F)cc1)c1ccccc1 (stereo not shown) [TDH-247, 2-((4-fluorophenyl)amino)-2-oxo-1-phenylethyl 3-amino-6-(1-(1-(2-((1-(1-(2-(2,6-dioxopiperidin-3-yl)-1,3-dioxoisoindolin-4-yl)piperidine-4-carbonyl)piperidin-4-yl)oxy)ethyl)piperidin-4-yl)-1H-pyrazol-4-yl)pyrazine-2-carboxylate] | 40.99 | 33.69 | 64.32 | 45.04 | 4.6 |  | 
